In patent US20140066410A1, “INHIBITORS OF BROMODOMAINS AS MODULATORS OF GENE EXPRESSION” (ICAHN SCHOOL OF MEDICINE AT MOUNT SINAI, priority 2011, published 2014):

Experiments:
[1] = test system: p53 target genes; assay: RT-PCR array of p53 signaling pathway genes in U20S cells; format: cell-based
Method: The selectivity of ischemin in transcription inhibition of p53 target genes was evaluated using a RT-PCR array analysis of RNA isolated from biological samples of U20S cells. The array was performed on RNA isolated from three different biological repeats in U20S cells using a set of primers selected for a group of genes that are known to be associated within p53 signaling pathways. The differentially expressed genes in treated related to untreated groups, i.e. doxorubicin treated versus untreated, or doxorubicin plus ischemin versus doxorubicin alone, were subjected to pathway analysis by using the Ingenuity System software. The fold changes of these genes were converted to log2Ratio and then imported into IPA tool along with gene symbols. The enriched pathways in the gene list were identified by Fisher exact test at p value of 0.05 and visualized in Canonical pathway explorer.

[2] = test system: cardiomyocytes; assay: TUNEL apoptosis assay in primary neonatal rat cardiomyocytes; format: cell-based
Method: The ability of ischemin to inhibit apoptosis in cardiomyocytes under DNA damage stress was evaluated. Primary neonatal rat cardiomyocytes were isolated and maintained in culture, then, treated with doxorubicin for 24 hours to induce DNA damage in the presence or absence of ischemin. The DNA damage induced by apoptosis was analyzed by the TUNEL (terminal deoxynucleotidyl transferase dUTP nick and end labeling) assay, in which a terminal deoxynucleotidyl transferase was used to identify 3′-OH of DNA generated by DNA fragmentation resulting from apoptosis, and then labels it with biotinylated dUTP. The latter was then detected with avidin-conjugated FITC for specific staining. Neonatal rat ventricular myocytes (NRVMs) were isolated by enzymatic dissociation of cardiac ventricle from 1-to-2-day-old Sprague-Dawley pups using the Worthington neonatal cardiomyocyte isolation system (Worthington). Briefly, the pups were anesthetized and their hearts were excised. The ventricular tissues were minced in ice cold HBSS and then digested with trypsin overnight at 4° C. followed by collagenase treatment for 45 min at 37° C. […] After treatment with compounds overnight and then doxorubicin for 24 hours, the intensities of luminecnce were read. […]

[3] = test system: caspase 3/7; assay: Caspase 3/7 assay in cardiomyocytes; format: cell-based, rat; settings: doxorubicin-induced
Method: Neonatal rat ventricular myocytes (NRVMs) were isolated by enzymatic dissociation of cardiac ventricle from 1-to-2-day-old Sprague-Dawley pups using the Worthington neonatal cardiomyocyte isolation system (Worthington). Briefly, the pups were anesthetized and their hearts were excised. The ventricular tissues were minced in ice cold HBSS and then digested with trypsin overnight at 4° C. followed by collagenase treatment for 45 min at 37° C. Cells were collected by centrifugation at 800 rpm for 5 min and subsequently underwent two rounds of preplating on culture dishes to minimize nonmyocyte contamination. The enriched cardiomyocytes were cultured in DMEM/F12 nutrient mixture (Invitrogen) with 10% horse serum and 5% fetal calf serum (Invitrogen). After 48 hours, the medium was changed to DMEM/F12 containing 1% insulin, transferrin, and selenium media supplement (ITS; Invitrogen) and 0.1% BSA.
Caspase 3/7 and TUNEL assays were performed to assess inhibition of apoptosis by ischemin. Caspase assay and TUNEL assays were performed using Caspase-Glo 3/7 and DeadEnd kits from Promega. Caspase assay was performed on live cardiomyocytes in 96 wells plate on three different days. Similarly, TUNEL assay was performed in triplicate on three different days. […] After treatment with compounds overnight and then doxorubicin for 24 hours, the intensities of luminecnce were read. […]

Cc1cc(/N=N/c2cc(S(=O)(=O)O)c(C)cc2C)c(N)cc1O [Ischemin/MS120, 5-(2-amino-4-hydroxy-5-methylphenylazo)-2,4-dimethylbenzenesulfonic acid]
Doxorubicin-induced expression of p53 target genes (CCNE2, CCNG2, CDC2, CDC25A, CDKN1A, CDKN2A, GADD45A, E2F1, E2F3, PCNA, SESN1, SESN2) [1]: differentially reduce
Toxicity in cardiomyocytes ([2]; ischemin alone): no toxicity
Inhibition of doxorubicin-induced apoptosis (TUNEL) ([2]; neonatal rat cardiomyocytes, doxorubicin 24 hours): effectively inhibit
Caspase 3/7 activity [3]: inhibiting caspase 3/7 activity in a dose-dependent manner
